Laboratory results taken from patent US10405547B2, “Substituted cyclic amides as herbicides” (FMC Corporation, priority 2015, dated 2019).

How the values were obtained:
Assay type in all cases: in vivo
[1] = system: ryegrass, Italian (Lolium multiflorum); assay: Test A preemergence, Italian ryegrass; details: 0 to 100 scale (0 no effect, 100 complete control)
In short: (§1)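 Greenhouse test: compounds in solvent with surfactant sprayed onto loam–sand soil after planting (preemergence) or onto plants 2-10 cm at the one- to two-leaf stage (postemergence). Injury visually rated versus untreated controls after about 10 days on a 0-100 scale (100 = complete control).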

kochia (Kochia scoparia) [2] = assay: Test A preemergence, kochia; details: 0 to 100 scale (0 no effect, 100 complete control)
In short: as §1

[3] = system: ragweed (common ragweed, Ambrosia elatior); assay: Test A preemergence, ragweed; details: 0 to 100 scale (0 no effect, 100 complete control)
In short: as §1

rice (Oryza sativa) = assay: Test B flooded paddy test, rice; details: 250 g ai/ha, applied to paddy water, visual rating after 13 to 15 days, scale 0 (no effect) to 100 (complete control)
In short: (§2)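 Under a constant 3 cm flood, test compounds went directly into the paddy water. Following 13 to 15 days of greenhouse growth, treated species and controls were compared by eye.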

[4] = system: ragweed (common ragweed, Ambrosia elatior); assay: Test A postemergence, ragweed; details: 0 to 100 scale (0 no effect, 100 complete control)
In short: as §1

[5] = system: foxtail, giant (Setaria faberii); assay: Test A preemergence, giant foxtail; details: 0 to 100 scale (0 no effect, 100 complete control)
In short: as §1

[6] = system: barnyardgrass (Echinochloa crus-galli); assay: Test A postemergence, barnyardgrass; details: 0 to 100 scale (0 no effect, 100 complete control)
In short: as §1

kochia (Kochia scoparia) [7] = assay: Test A postemergence, kochia; details: 0 to 100 scale (0 no effect, 100 complete control)
In short: as §1

[8] = system: ducksalad (Heteranthera limosa); assay: Test B flooded paddy test, ducksalad; details: 250 g ai/ha, applied to paddy water, visual rating after 13 to 15 days, scale 0 (no effect) to 100 (complete control)
In short: as §2

[9] = system: barnyardgrass (Echinochloa crus-galli); assay: Test B flooded paddy test, barnyardgrass; details: 250 g ai/ha, applied to paddy water, visual rating after 13 to 15 days, scale 0 (no effect) to 100 (complete control)
In short: as §2

corn (Zea mays) = assay: Test A postemergence, corn; details: 0 to 100 scale (0 no effect, 100 complete control)
In short: as §1

[10] = system: galium (catchweed bedstraw, Galium aparine); assay: Test A postemergence, galium; details: 0 to 100 scale (0 no effect, 100 complete control)
In short: as §1

[11] = system: wheat (Triticum aestivum); assay: Test A postemergence, wheat; details: 0 to 100 scale (0 no effect, 100 complete control)
In short: as §1

[12] = system: ryegrass, Italian (Lolium multiflorum); assay: Test A postemergence, Italian ryegrass; details: 0 to 100 scale (0 no effect, 100 complete control)
In short: as §1

[13] = system: pigweed (Amaranthus retroflexus); assay: Test A preemergence, pigweed; details: 0 to 100 scale (0 no effect, 100 complete control)
In short: as §1

[14] = system: pigweed (Amaranthus retroflexus); assay: Test A postemergence, pigweed; details: 0 to 100 scale (0 no effect, 100 complete control)
In short: as §1

[15] = system: sedge, umbrella (small-flower umbrella sedge, Cyperus difformis); assay: Test B flooded paddy test, umbrella sedge; details: 250 g ai/ha, applied to paddy water, visual rating after 13 to 15 days, scale 0 (no effect) to 100 (complete control)
In short: as §2

[16] = system: barnyardgrass (Echinochloa crus-galli); assay: Test A preemergence, barnyardgrass; details: 0 to 100 scale (0 no effect, 100 complete control)
In short: as §1

[17] = system: foxtail, giant (Setaria faberii); assay: Test A postemergence, giant foxtail; details: 0 to 100 scale (0 no effect, 100 complete control)
In short: as §1

[18] = system: blackgrass (Alopecurus myosuroides); assay: Test A postemergence, blackgrass; details: 0 to 100 scale (0 no effect, 100 complete control)
In short: as §1

[19] = 125 g ai/ha, visual injury, approximately 10 days
[20] = 500 g ai/ha, visual injury, approximately 10 days

| Structure (SMILES) | Plant response rating, Ryegrass, Italian ([1]; 125 g ai/ha) | Plant response rating, Kochia (kochia (Kochia scoparia) [2]; 125 g ai/ha) | Plant response rating, Ragweed ([3]; 125 g ai/ha) | Plant response rating, Rice (Flood) (rice (Oryza sativa)) | Plant response rating, Ragweed [4, 19] | Plant response rating, Foxtail, Giant ([5]; 125 g ai/ha) | Plant response rating, Barnyardgrass [6, 19] | Plant response rating, Kochia (kochia (Kochia scoparia) [7]; [19]) | Plant response rating, Ducksalad (Flood) [8] | Plant response rating, Barnyardgrass (Flood) [9] | Plant response rating, Corn (corn (Zea mays); [19]) | Plant response rating, Galium [10, 19] | Plant response rating, Wheat [11, 19] | Plant response rating, Ryegrass, Italian [12, 19] | Plant response rating, Pigweed ([13]; 125 g ai/ha) | Plant response rating, Pigweed [14, 19] | Plant response rating, Sedge, Umbrella (Flood) [15] | Plant response rating, Barnyardgrass ([16]; 125 g ai/ha) | Plant response rating, Foxtail, Giant [17, 19] | Plant response rating, Blackgrass [18, 19] | also measured |
| --- | --- | --- | --- | --- | --- | --- | --- | --- | --- | --- | --- | --- | --- | --- | --- | --- | --- | --- | --- | --- | --- |
| O=C1NCC(c2cccc(CN3CCOCC3)c2)C1C(=O)Nc1cccc(F)c1F (single isomer, unassigned) [Compound 90] | 0 | 0 | 0 | 0 | 0 | 0 | 0 | 0 | 0 | 0 | 0 | 0 | 0 | 0 | 0 | 0 | 0 | 0 | 0 | 0 | Plant response rating, Ryegrass, Italian ([1]; 31 g ai/ha): 0; Plant response rating, Kochia (kochia (Kochia scoparia) [2]; 31 g ai/ha): 0; Plant response rating, Ragweed ([3]; 31 g ai/ha): 0; Plant response rating, Ragweed ([4]; 31 g ai/ha): 0; Plant response rating, Foxtail, Giant ([5]; 31 g ai/ha): 0; Plant response rating, Barnyardgrass ([6]; 31 g ai/ha): 0; Plant response rating, Kochia (kochia (Kochia scoparia) [7]; 31 g ai/ha): 0; Plant response rating, Corn (corn (Zea mays); 31 g ai/ha): 0; Plant response rating, Galium ([10]; 31 g ai/ha): 0; Plant response rating, Wheat ([11]; 31 g ai/ha): 0; Plant response rating, Ryegrass, Italian ([12]; 31 g ai/ha): 0; Plant response rating, Pigweed ([13]; 31 g ai/ha): 0; Plant response rating, Pigweed ([14]; 31 g ai/ha): 0; Plant response rating, Barnyardgrass ([16]; 31 g ai/ha): 0; Plant response rating, Foxtail, Giant ([17]; 31 g ai/ha): 0; Plant response rating, Blackgrass ([18]; 31 g ai/ha): 0 |
| CC1(COc2cccc(C3CNC(=O)C3C(=O)Nc3ccccc3F)c2)COC1 (stereo not drawn) [Compound 14] | 0 | 0 | 0 | 0 | 0 | 30 | 10 | 0 | 70 | 0 | 0 | 0 | 0 | 0 | 0 | 0 | 20 | 10 | 10 | 0 | Plant response rating, Ryegrass, Italian ([1]; 500 g ai/ha): 0; Plant response rating, Kochia (kochia (Kochia scoparia) [2]; 500 g ai/ha): 0; Plant response rating, Ragweed ([3]; 500 g ai/ha): 0; Plant response rating, Ragweed [4, 20]: 0; Plant response rating, Foxtail, Giant ([5]; 500 g ai/ha): 90; Plant response rating, Barnyardgrass [6, 20]: 60; Plant response rating, Kochia (kochia (Kochia scoparia) [7]; [20]): 0; Plant response rating, Corn (corn (Zea mays); [20]): 0; Plant response rating, Galium [10, 20]: 0; Plant response rating, Wheat [11, 20]: 0; Plant response rating, Ryegrass, Italian [12, 20]: 0; Plant response rating, Pigweed ([13]; 500 g ai/ha): 0; Plant response rating, Pigweed [14, 20]: 0; Plant response rating, Barnyardgrass ([16]; 500 g ai/ha): 80; Plant response rating, Foxtail, Giant [17, 20]: 70; Plant response rating, Blackgrass [18, 20]: 0 |
| CN1CC(c2cccc(Oc3ccc(F)cc3)c2)C(C(=O)Nc2cccc(F)c2F)C1=O (single isomer, unassigned) [Compound 46] | 20 | 0 | 0 | 0 | 0 | 90 | 90 | 40 | 30 | 0 | 40 | 60 | 0 | 0 | 40 | 50 | 0 | 70 | 70 | 0 | Plant response rating, Ryegrass, Italian ([1]; 500 g ai/ha): 80; Plant response rating, Kochia (kochia (Kochia scoparia) [2]; 500 g ai/ha): 20; Plant response rating, Ragweed ([3]; 500 g ai/ha): 30; Plant response rating, Ragweed [4, 20]: 0; Plant response rating, Foxtail, Giant ([5]; 500 g ai/ha): 90; Plant response rating, Barnyardgrass [6, 20]: 90; Plant response rating, Kochia (kochia (Kochia scoparia) [7]; [20]): 60; Plant response rating, Corn (corn (Zea mays); [20]): 50; Plant response rating, Galium [10, 20]: 70; Plant response rating, Wheat [11, 20]: 20; Plant response rating, Ryegrass, Italian [12, 20]: 30; Plant response rating, Pigweed ([13]; 500 g ai/ha): 70; Plant response rating, Pigweed [14, 20]: 70; Plant response rating, Barnyardgrass ([16]; 500 g ai/ha): 80; Plant response rating, Foxtail, Giant [17, 20]: 80; Plant response rating, Blackgrass [18, 20]: 30 |
| O=C1NCC(c2cccc(OCc3ccco3)c2)C1C(=O)Nc1ccccc1Cl (stereo not drawn) [Compound 1] | 0 | 0 | 0 | 0 | 0 | 0 | 0 | 0 | 65 | 0 | 0 | 0 | 0 | 0 | 0 | 0 | 30 | 0 | 0 | 0 | Plant response rating, Ryegrass, Italian ([1]; 500 g ai/ha): 0; Plant response rating, Kochia (kochia (Kochia scoparia) [2]; 500 g ai/ha): 0; Plant response rating, Ragweed ([3]; 500 g ai/ha): 0; Plant response rating, Ragweed [4, 20]: 30; Plant response rating, Foxtail, Giant ([5]; 500 g ai/ha): 0; Plant response rating, Barnyardgrass [6, 20]: 0; Plant response rating, Kochia (kochia (Kochia scoparia) [7]; [20]): 0; Plant response rating, Corn (corn (Zea mays); [20]): 0; Plant response rating, Galium [10, 20]: 0; Plant response rating, Wheat [11, 20]: 0; Plant response rating, Ryegrass, Italian [12, 20]: 0; Plant response rating, Pigweed ([13]; 500 g ai/ha): 0; Plant response rating, Pigweed [14, 20]: 0; Plant response rating, Barnyardgrass ([16]; 500 g ai/ha): 0; Plant response rating, Foxtail, Giant [17, 20]: 0; Plant response rating, Blackgrass [18, 20]: 0 |
| O=C1NCC(c2cccc(OCC3OCCO3)c2)C1C(=O)Nc1cccc(F)c1F (stereo not drawn) [Compound 7] | 30 | 0 | 0 | 0 | 0 | 90 | 40 | 0 | 75 | 0 | 0 | 20 | 0 | 0 | 60 | 0 | 0 | 60 | 20 | 0 | Plant response rating, Ryegrass, Italian ([1]; 500 g ai/ha): 30; Plant response rating, Kochia (kochia (Kochia scoparia) [2]; 500 g ai/ha): 0; Plant response rating, Ragweed ([3]; 500 g ai/ha): 0; Plant response rating, Ragweed [4, 20]: 20; Plant response rating, Foxtail, Giant ([5]; 500 g ai/ha): 90; Plant response rating, Barnyardgrass [6, 20]: 70; Plant response rating, Kochia (kochia (Kochia scoparia) [7]; [20]): 0; Plant response rating, Corn (corn (Zea mays); [20]): 20; Plant response rating, Galium [10, 20]: 40; Plant response rating, Wheat [11, 20]: 40; Plant response rating, Ryegrass, Italian [12, 20]: 20; Plant response rating, Pigweed ([13]; 500 g ai/ha): 60; Plant response rating, Pigweed [14, 20]: 0; Plant response rating, Barnyardgrass ([16]; 500 g ai/ha): 90; Plant response rating, Foxtail, Giant [17, 20]: 70; Plant response rating, Blackgrass [18, 20]: 40 |
